Experiment [1] concerns primary forebrain neurons. In words: cells. As to conditions: 24 h; for EC50: Mus musculus, Neuron; for Dendritic Mt CA / Neurite Area: rescreen, 12.5 μM, vs DMSO wells.
The subject of a further experiment is primary neurons. In words: CellTiter-Glo luminescence-based ATP assay. The class given is cell-based, mouse. As to conditions: for ATP: ATP orthogonal screen, 24 h; for EC50 / Emax: Mus musculus, Primary neuron, dose response; for EC50: 15 concentrations from 6 nM to 100 uM; for Emax: maximal percent increase relative to in-plate DMSO controls, read-out: ATP (Effect-size). Put shortly: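 Primary neurons treated from DIV13 for 24 h with compound or DMSO. After part of the medium was removed, CellTiter-Glo reagent was added; plates were shaken 10 min at 200 rpm, kept 2 min in the dark at room temperature, and luminescence read as total ATP.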
On the technique in general: ATP-based viability assays read luminescence as a measure of living cells.

[2] abbreviates: read-out: Elongation (Dend Mt length) EC50.
The mark [3] stands for this setting: read-out: Health (Ax Mt Circularity) EC50.
The mark [4] stands for this setting: read-out: Mt Content (Dend Mt CA) EC50.
Setting [5] is: read-out: Sprouting (Neurite Area) EC50.

Structures can show the parent of a compound that is named as a salt. Where two headings read alike, the source gives them in different places. Bounds are passed on as bounds.

The results in this text go back to patent publication US20230003721A1, “MITOTHERAPEUTICS FOR THE TREATMENT OF BRAIN DISORDERS” (The University of Florida Research Foundation, Inc., priority 2019, published 2023).

Take `CCCCOc1ccc(C(=O)CCN2CCCCC2)cc1` [DYCLONINE HYDROCHLORIDE]: the concentration giving a half-maximal response (EC50) in experiment [1] (setting [2]) is 1500 nM; in experiment [1] (setting [3]), 200 nM; in experiment [1] (setting [4]), 200 nM; in experiment [1] (setting [5]) it was over 25000 nM; in the experiment with primary neurons, 140 nM. Further, the “Dendritic Mt CA” value in experiment [1] is recorded as 3.89 robust Z-scores. Moreover, the “Neurite Area” value in experiment [1] was determined as 0.33 robust Z-scores. In the experiment on primary neurons, this compound yielded an ATP of 7.04 Z-scores. The Emax with primary neurons worked out at 20.7%. Also, in the experiment on primary neurons (after 24 hr of treatment), the “ATP production in neurons” value is reported as “increased”.
`O=c1c(-c2ccc(O)cc2)coc2cc(O)cc(O)c12` [GENISTEIN]: in experiment [1], the “Dendritic Mt CA” value is reported as 2.93 robust Z-scores and the “Neurite Area” value was determined as 0.34 robust Z-scores. For the same compound, in the experiment on primary neurons, the ATP came to 5.96 Z-scores, the concentration for a half-maximal effect (EC50) worked out at 3000 nM and the Emax is 20.6%.
`COC(=O)[C@@H]1[C@H]2C[C@H]3c4[nH]c5ccccc5c4CCN3C[C@@H]2CC[C@@H]1O` [YOHIMBINE HYDROCHLORIDE]: the EC50 in experiment [1] (setting [2]) is 200 nM; in experiment [1] (setting [3]), 1300 nM; in experiment [1] (setting [4]) it was 10 nM; in experiment [1] (setting [5]), 1700 nM; with primary neurons it was 270 nM. In experiment [1], the “Dendritic Mt CA” value is reported as 3.44 robust Z-scores. In addition, the “Neurite Area” value in experiment [1] is listed as 2.50 robust Z-scores. Further, the ATP with primary neurons was 3.11 Z-scores. Also, in the experiment on primary neurons, the Emax came out at 23.6%.

What is called EC50 is the concentration that produces a half-maximal response.
